One substance from US5849536A, “Cloning and production of human von willebrand factor GPIb binding domain polypeptides and methods of using same” (Bio-Technology General Corp., priority 1994, dated 1998) can be followed below.

The test relates to rat platelet rich plasma (PRP). Put plainly: vWF-dependent platelet aggregation assay in rat platelet rich plasma. The class given is cell-based. The following applies: ristocetin up to 5.0 mg/ml, no additional agent. The procedure:
This is a standardized von Willebrand Factor (vWF)-dependent aggregation assay using human or rat platelet rich plasma (PRP). The addition of various concentrations of unfractionated Bothrops jararaca venom (BJV), which includes botrocetin and an additional thrombin-like component, or ristocetin results in an aggregatory response in the absence of any additional agent. Using ristocetin (1.5 mg/ml) as the agonist 43 μg/ml VCL abolished the aggregation of human PRP.

Regarding ristocetin, the “aggregation of rat PRP induced by the agonist” value is “did not cause measurable aggregation”.
